Measured values taken from PubChem BioAssay (NCI).
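Cells were grown in 96-well plates and exposed to each compound for 48 hours at five concentrations; endpoints were interpolated linearly between bracketing concentrations, or set to the highest concentration if not reached. Abbreviation: GI50, concentration required for 50% inhibition of growth. Definition used: TGI = concentration required for complete inhibition of growth.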

Legend:
Assay in all cases: inhibition of tumour cell growth, NCI panel, 48 h
UACC-257 melanoma = tested on: UACC-257 melanoma
HOP-62 NSCLC = tested on: HOP-62 NSCLC
MALME-3M melanoma = tested on: MALME-3M melanoma
LOX IMVI melanoma = tested on: LOX IMVI melanoma
MDA-MB-231 breast = tested on: MDA-MB-231 breast
U251 CNS = tested on: U251 CNS
EKVX NSCLC = tested on: EKVX NSCLC
HT29 colon = tested on: HT29 colon
NCI-H23 lung = tested on: NCI-H23 lung
SN12C renal = tested on: SN12C renal

Work on `COc1ccc(-c2nc(C(=O)c3ccccc3)n(CC(=O)c3ccccc3)c2-c2ccc(OC)cc2)cc1` yielded a GI50 (UACC-257 melanoma) of over 100 µM, a TGI (UACC-257 melanoma) of over 100 µM and a GI50 (HOP-62 NSCLC) of over 100 µM. For the same molecule, the TGI (HOP-62 NSCLC) was over 100 µM, the GI50 (MALME-3M melanoma) was over 100 µM and the TGI (MALME-3M melanoma) was over 100 µM. For the same molecule, the GI50 (LOX IMVI melanoma) was over 100 µM, the TGI (LOX IMVI melanoma) was over 100 µM and the GI50 (MDA-MB-231 breast) was over 100 µM. It also gave a TGI (MDA-MB-231 breast) of over 100 µM, a GI50 (U251 CNS) of over 100 µM and a TGI (U251 CNS) of over 100 µM. For the same molecule, the GI50 (EKVX NSCLC) was over 100 µM, the TGI (EKVX NSCLC) was over 100 µM and the GI50 (HT29 colon) was over 100 µM. The TGI (HT29 colon) was over 100 µM, the GI50 (NCI-H23 lung) was over 100 µM and the TGI (NCI-H23 lung) was over 100 µM. The GI50 (SN12C renal) was over 100 µM and the TGI (SN12C renal) was over 100 µM.

For `Cc1nc(CN2CCCCC2)c(O)c(=O)[nH]1`, the TGI (UACC-257 melanoma) was over 100 µM, the TGI (HOP-62 NSCLC) was over 100 µM and the TGI (MALME-3M melanoma) was over 100 µM. For the same molecule, the TGI (LOX IMVI melanoma) was over 100 µM, the TGI (MDA-MB-231 breast) was over 100 µM and the TGI (U251 CNS) was over 100 µM. It also gave a TGI (EKVX NSCLC) of over 100 µM, a TGI (HT29 colon) of over 100 µM and a TGI (NCI-H23 lung) of over 100 µM. For the same molecule, the TGI (SN12C renal) was over 100 µM.

`S=C(Nc1ccc(Cl)cc1)Nc1ccc(-c2nc3ccccc3o2)cc1` was tested, and the GI50 (UACC-257 melanoma) was 21.4 µM, the TGI (UACC-257 melanoma) was 45.4 µM and the GI50 (HOP-62 NSCLC) was 26 µM. It also gave a TGI (HOP-62 NSCLC) of 57.4 µM, a GI50 (MALME-3M melanoma) of 23.8 µM and a TGI (MALME-3M melanoma) of 59.9 µM. It also gave a GI50 (LOX IMVI melanoma) of 11.7 µM, a TGI (LOX IMVI melanoma) of 26.3 µM and a GI50 (MDA-MB-231 breast) of 10.3 µM. For the same molecule, the TGI (MDA-MB-231 breast) was 35.1 µM, the GI50 (U251 CNS) was 14.1 µM and the TGI (U251 CNS) was 29.7 µM. It also gave a GI50 (EKVX NSCLC) of 19.4 µM, a TGI (EKVX NSCLC) of 64 µM and a GI50 (HT29 colon) of 17.4 µM. It also gave a TGI (HT29 colon) of 41.8 µM, a GI50 (NCI-H23 lung) of 17.7 µM and a TGI (NCI-H23 lung) of 41.8 µM. The GI50 (SN12C renal) was 13.7 µM and the TGI (SN12C renal) was 28.8 µM.

In the case of `Clc1ccc(C2=Nn3c(nnc3-c3cc(Cl)cc(Cl)c3Cl)SC2)cc1`, the GI50 (UACC-257 melanoma) is reported as 33.2 µM, the TGI (UACC-257 melanoma) is reported as over 100 µM and the GI50 (HOP-62 NSCLC) is reported as 14.5 µM. The TGI (HOP-62 NSCLC) was 32.5 µM, the GI50 (MALME-3M melanoma) was 10.5 µM and the TGI (MALME-3M melanoma) was 29.2 µM. For the same molecule, the GI50 (LOX IMVI melanoma) was 27.1 µM, the TGI (LOX IMVI melanoma) was over 100 µM and the GI50 (MDA-MB-231 breast) was 23.3 µM. For the same molecule, the TGI (MDA-MB-231 breast) was 97.1 µM, the GI50 (U251 CNS) was 12.7 µM and the TGI (U251 CNS) was 28.3 µM. For the same molecule, the GI50 (EKVX NSCLC) was 45.1 µM, the TGI (EKVX NSCLC) was over 100 µM and the GI50 (HT29 colon) was 9.26 µM. The TGI (HT29 colon) was over 100 µM, the GI50 (NCI-H23 lung) was 22.1 µM and the TGI (NCI-H23 lung) was 78.8 µM. It also gave a GI50 (SN12C renal) of 75 µM and a TGI (SN12C renal) of over 100 µM.

Molecule `Fc1ccc(-c2ncn(C3CCNCC3)c2-c2ccnc(Oc3ccc(F)c(F)c3)n2)cc1` has a GI50 (UACC-257 melanoma) of 4.76 µM, a TGI (UACC-257 melanoma) of 9.15 µM and a GI50 (HOP-62 NSCLC) of 4.83 µM. For the same molecule, the TGI (HOP-62 NSCLC) was 9.56 µM, the GI50 (MALME-3M melanoma) was 5.19 µM and the TGI (MALME-3M melanoma) was 9.85 µM. The GI50 (LOX IMVI melanoma) was 4.29 µM, the TGI (LOX IMVI melanoma) was 9.14 µM and the GI50 (MDA-MB-231 breast) was 5.59 µM. The TGI (MDA-MB-231 breast) was 12 µM, the GI50 (U251 CNS) was 5 µM and the TGI (U251 CNS) was 11.7 µM. It also gave a GI50 (EKVX NSCLC) of over 14.6 µM, a TGI (EKVX NSCLC) of over 25 µM and a GI50 (HT29 colon) of 4.36 µM. It also gave a TGI (HT29 colon) of 8.12 µM, a GI50 (NCI-H23 lung) of over 17.8 µM and a TGI (NCI-H23 lung) of over 25 µM. The GI50 (SN12C renal) was 6.24 µM and the TGI (SN12C renal) was over 14.6 µM.

With `O=C(O)CCC/C=C\C[C@H]1C=CC(=O)/C1=C/C[C@@H](O)CCc1cccc(C(F)(F)F)c1` the GI50 (UACC-257 melanoma) was 2.36 µM, the TGI (UACC-257 melanoma) was 7.38 µM and the GI50 (HOP-62 NSCLC) was 2.93 µM. The TGI (HOP-62 NSCLC) was 7.27 µM, the GI50 (MALME-3M melanoma) was 4.75 µM and the TGI (MALME-3M melanoma) was 19.3 µM. For the same molecule, the GI50 (LOX IMVI melanoma) was 1.29 µM, the TGI (LOX IMVI melanoma) was 2.89 µM and the GI50 (MDA-MB-231 breast) was 5.19 µM. It also gave a TGI (MDA-MB-231 breast) of 21.9 µM, a GI50 (U251 CNS) of 1.55 µM and a TGI (U251 CNS) of 3.45 µM. It also gave a GI50 (EKVX NSCLC) of 3.73 µM, a TGI (EKVX NSCLC) of 14.3 µM and a GI50 (HT29 colon) of 2.69 µM. It also gave a TGI (HT29 colon) of 6.41 µM, a GI50 (NCI-H23 lung) of 2.25 µM and a TGI (NCI-H23 lung) of 6.37 µM. For the same molecule, the GI50 (SN12C renal) was 3.41 µM and the TGI (SN12C renal) was 26.8 µM.

Work on `CC(=O)N1c2ccccc2NC2=C(C(=O)N(Cc3ccccc3)C2(C)C)C1c1ccco1` (stereo not given) yielded a GI50 (UACC-257 melanoma) of over 25 µM, a TGI (UACC-257 melanoma) of over 25 µM and a GI50 (HOP-62 NSCLC) of 1.25 µM. It also gave a TGI (HOP-62 NSCLC) of over 25 µM, a GI50 (MALME-3M melanoma) of 1.2 µM and a TGI (MALME-3M melanoma) of over 25 µM. For the same molecule, the GI50 (LOX IMVI melanoma) was 1.01 µM, the TGI (LOX IMVI melanoma) was over 25 µM and the GI50 (MDA-MB-231 breast) was 0.364 µM. The TGI (MDA-MB-231 breast) was over 11.3 µM, the GI50 (U251 CNS) was 0.665 µM and the TGI (U251 CNS) was over 25 µM. For the same molecule, the GI50 (EKVX NSCLC) was 1.73 µM, the TGI (EKVX NSCLC) was over 25 µM and the GI50 (HT29 colon) was 0.755 µM. For the same molecule, the TGI (HT29 colon) was over 25 µM, the GI50 (NCI-H23 lung) was 0.494 µM and the TGI (NCI-H23 lung) was over 25 µM. It also gave a GI50 (SN12C renal) of 0.589 µM and a TGI (SN12C renal) of over 25 µM.

For `CS(=O)(=O)Nc1cccc(-c2cc(-c3ccccc3Cl)c(C#N)c(N)n2)c1`, the GI50 (UACC-257 melanoma) was 0.5 µM, the TGI (UACC-257 melanoma) was 21.4 µM and the GI50 (HOP-62 NSCLC) was 0.558 µM. It also gave a TGI (HOP-62 NSCLC) of 16.6 µM, a GI50 (MALME-3M melanoma) of 3.23 µM and a TGI (MALME-3M melanoma) of 25 µM. The GI50 (LOX IMVI melanoma) was 0.531 µM, the TGI (LOX IMVI melanoma) was 17.4 µM and the GI50 (MDA-MB-231 breast) was 0.712 µM. The TGI (MDA-MB-231 breast) was 15.5 µM, the GI50 (U251 CNS) was 0.531 µM and the TGI (U251 CNS) was 15.4 µM. For the same molecule, the GI50 (EKVX NSCLC) was 2.38 µM, the TGI (EKVX NSCLC) was 21.4 µM and the GI50 (HT29 colon) was 0.389 µM. The TGI (HT29 colon) was 11.9 µM, the GI50 (NCI-H23 lung) was 0.651 µM and the TGI (NCI-H23 lung) was 19.5 µM. The GI50 (SN12C renal) was 0.722 µM and the TGI (SN12C renal) was 24.4 µM.

Molecule `CN1CCN(c2cc(C(=O)Nc3cc4cc(-c5cnn(C)c5)ccc4cn3)ccn2)CC1` has a GI50 (UACC-257 melanoma) of 0.146 µM, a TGI (UACC-257 melanoma) of 10.4 µM and a GI50 (HOP-62 NSCLC) of 0.207 µM. It also gave a TGI (HOP-62 NSCLC) of 12.7 µM, a GI50 (MALME-3M melanoma) of 0.155 µM and a TGI (MALME-3M melanoma) of 0.584 µM. The GI50 (LOX IMVI melanoma) was 0.0933 µM, the TGI (LOX IMVI melanoma) was 0.262 µM and the GI50 (MDA-MB-231 breast) was 0.219 µM. For the same molecule, the TGI (MDA-MB-231 breast) was 3.75 µM, the GI50 (U251 CNS) was 0.188 µM and the TGI (U251 CNS) was 13.2 µM. The GI50 (EKVX NSCLC) was 0.302 µM, the TGI (EKVX NSCLC) was 14.3 µM and the GI50 (HT29 colon) was 0.182 µM. It also gave a TGI (HT29 colon) of 0.442 µM, a GI50 (NCI-H23 lung) of 0.111 µM and a TGI (NCI-H23 lung) of 3.29 µM. For the same molecule, the GI50 (SN12C renal) was 0.123 µM and the TGI (SN12C renal) was 12.7 µM.

In the case of `COc1cc2c3c(n(CCCNCCCNCCCNCCCN)c(=O)c2cc1OC)-c1cc2c(cc1C3=O)OCO2`, the GI50 (UACC-257 melanoma) is reported as 3.72 µM, the TGI (UACC-257 melanoma) is reported as 17.2 µM and the GI50 (HOP-62 NSCLC) is reported as 3.01 µM. It also gave a TGI (HOP-62 NSCLC) of 13 µM, a GI50 (MALME-3M melanoma) of 0.318 µM and a TGI (MALME-3M melanoma) of 1.29 µM. It also gave a GI50 (LOX IMVI melanoma) of 1.15 µM, a TGI (LOX IMVI melanoma) of 3.25 µM and a GI50 (MDA-MB-231 breast) of 2.43 µM. For the same molecule, the TGI (MDA-MB-231 breast) was 7.79 µM, the GI50 (U251 CNS) was 1.33 µM and the TGI (U251 CNS) was 3.81 µM. It also gave a GI50 (EKVX NSCLC) of 1.18 µM, a TGI (EKVX NSCLC) of 3.5 µM and a GI50 (HT29 colon) of 2.28 µM. It also gave a TGI (HT29 colon) of 16.4 µM, a GI50 (NCI-H23 lung) of 1.5 µM and a TGI (NCI-H23 lung) of 3.86 µM. The GI50 (SN12C renal) was 1.56 µM and the TGI (SN12C renal) was 9.35 µM.
